Read-outs that look alike come from different tables or passages of the source.
What was measured:
B16 melanoma cells [1] = assay: Cell cycle analysis by flow cytometry (sub-G1 fraction); format: cell-based, murine; conditions: 24 h, data not shown
Method: Both adherent and floating cells were collected, washed with PBS and fixed with 1 mL of ice-cold 70% ethanol overnight at 4° C.

[2] = Day 21
Method: Female C57BL/6J mice (National Laboratory Animal Center, Tainan, Taiwan) were given a standard laboratory diet and distilled water ad libitum and kept on a 12-h light/dark cycle at 22±2° C. In total, 63 mice were randomly divided and assigned into 7 groups. Female C57BL/6J mice received an intravenous (i.v) injection with 1×10^5 B16 cells in 200 μL PBS through the tail vein at Day 0. On Day 1, mice were divided into tumor group, CP2 group, DET10 group, DET10+CP1 group, and CP2→DET10 group. The mice were treated intraperitoneally (i.p.) every two days with 2 mg/kg body weight (BW) cisplatin (CP2), 10 mg/kg BW DET (DET10), DET10 mixed with 1 mg/kg BW cisplatin (DET10+CP1), and with CP2 five times and DET10 five times, then CP2 and DET10 taking turns every two days till the end of the experiments (CP2→DET10 group), respectively. The Pre-DET10 group mice were treated i.p with DET (10 mg/kg BW) every two days two weeks before (Day 14) tumor cells inoculation on Day 0, and continuously treated with DET10 till the end of the experiment. The tumor control mice were treated with vehicle DMSO. The mice in the sham control group were injected i.p. with 20 μL DMSO on Day 1 every 2 days throughout the experimental period. […] On Day 21 post-tumor injection, three mice from each group were euthanized and blood collected for complete blood count (CBC) analysis.
Complete blood samples of test mice in each group on Day 21 were subjected to the analysis of white blood cell (WBC), neutrophil (N), monocyte (M), basophil (B) red blood cell (RBC), platelet (PLT), hemoglobin (Hb), and hematocrit (Ht) and other cell counts with a hemacytometer (FIG. 10).

[3] = tested on: lung metastasis of B16 melanoma (B16-COX-2/Luc cells); assay: Inhibition of lung metastasis of B16 cells in syngeneic mice, in vivo bioluminescence imaging; design: species or system C57BL/6J mice; conditions: for remained bioluminescence intensity relative to tumor control group (100%): Day 21; for mean bioluminescence intensity compared to tumor group (100%): Day 30
Method: Stable B16 melanoma cell clone carrying COX-2 promoter driven-luciferase (pGL-COX-2/Luc) reporter gene plasmid was established. […] The B16-COX-2/Luc stable cell line was used in the mouse lung metastasis experiments.
After 10 minutes of incubation with luciferin, each mouse was placed in a right lateral decubitus position and a digital grayscale animal image was acquired using an IVIS spectrum (Xenogen Corp.). The acquisition and overlay of a pseudocolor image was taken, which represents the spatial distribution of detected photons emerging from active luciferase within the animals. Signal intensity was quantified using an IVIS Spectrum system (Xenogen Corp.) as the sum of all detected photons per second on Day 0, 7, 14, 18, 21, 23, 26 and 30 of treatment.

B16 cells = assay: Time-lapse cell motility assay; format: cell-based, murine; conditions: time-lapse videomicroscopy over 24 h, 3 μM DET, 40 μM CP, 3 μM DET plus 40 μM CP; for migration velocity of B16 cells: vehicle control 0.35±0.09; for migration distance of B16 cells: vehicle control 488.2±147.1
Method: Cell motility was assessed by time-lapse videomicroscopy. B16 cells were seeded in 6 cm dish for 3 h and maintained at constant temperature (37° C.) and 5% CO2 chamber throughout the experimental period. Cells were observed under an inverted microscope (Zeiss Axiovert 200M), and phase-contrast snap photographs (one frame every 30 min) were digitally recorded for 24 h. Cell paths were generated from centroid positions, and cell velocities of migration were analyzed using the tracking object of the Metamorph software (Molecular Device).

[4] = Histology, TUNEL and F4/80 immunostaining of kidney tissues
Method: (§1) Female C57BL/6J mice (National Laboratory Animal Center, Tainan, Taiwan) were given a standard laboratory diet and distilled water ad libitum and kept on a 12-h light/dark cycle at 22±2° C. In total, 63 mice were randomly divided and assigned into 7 groups. Female C57BL/6J mice received an intravenous (i.v) injection with 1×10^5 B16 cells in 200 μL PBS through the tail vein at Day 0. On Day 1, mice were divided into tumor group, CP2 group, DET10 group, DET10+CP1 group, and CP2→DET10 group. The mice were treated intraperitoneally (i.p.) every two days with 2 mg/kg body weight (BW) cisplatin (CP2), 10 mg/kg BW DET (DET10), DET10 mixed with 1 mg/kg BW cisplatin (DET10+CP1), and with CP2 five times and DET10 five times, then CP2 and DET10 taking turns every two days till the end of the experiments (CP2→DET10 group), respectively. The Pre-DET10 group mice were treated i.p with DET (10 mg/kg BW) every two days two weeks before (Day 14) tumor cells inoculation on Day 0, and continuously treated with DET10 till the end of the experiment. The tumor control mice were treated with vehicle DMSO. The mice in the sham control group were injected i.p. with 20 μL DMSO on Day 1 every 2 days throughout the experimental period.
Paraffin-embedded kidney tissues were prepared from three mice in each group on Day 21. The paraffin-embedded kidney was sectioned (4 μm) and underwent H&E staining. In situ apoptotic cells in kidney tissues were determined by TUNEL assay (Chemicon) and the mean proportions of positive TUNEL cells were measured using AxioVision software (Carl Zeiss MicroImaging, Inc.). Immunostaining of macrophage infiltration in the kidney tissues was performed using F4/80 antibody and visualized with goat anti-mouse Cy3-labeled secondary antibodies (Jackson ImmunoResearch), counterstained with DAPI (1 μg/mL).

B16 melanoma cells [5] = assay: Migration and invasion assay (trans-well); format: cell-based, murine; conditions: 24 h; for B16 melanoma cell invasion: Matrigel
Method: B16 cells (1×10^5 cells) were cultured in culture-inserts of boyden chamber (ibidi, Germany) for 12 h. The culture-inserts were removed and added DET or cisplatin alone or in combination for 24 h. B16 cells were added into a 24-transwell permeable plate (8.0 μm polycarbonate membrane, 6.5 mm insert; Corning Incorporated, Corning, N.Y.) coated with Matrigel basement membrane matrix. The bottom wells received 50 μL medium having the same concentration of serum as the top well, either 1% or 10% FBS. Cells were removed from the upper and lower sides of the filter after 24 h. The ratio of the counts obtained from the bottom versus total counts from both sides was used to determine migration and invasiveness. The invading cells remaining in the well were counted in six randomly chosen low-power fields at 100× original magnification by inverted fluorescence microscopy.

B16 melanoma cells [6] = assay: MTT cell viability assay, B16 cell proliferation; format: cell-based, murine; conditions: 24 h, 37° C., read-out: IC50, inhibition of B16 cell proliferation
Method: Human melanocytes and murine B16 melanoma cells obtained from the American Type Culture Collection (ATCC®, MD) were grown overnight in a 10-mm petri-dish at 37° C. in MEM and RPMI medium 1640, respectively, supplemented with 10% heat-inactivated FBS, 100 units/mL penicillin, and 100 μg/mL streptomycin, in a humidified 5% CO2 incubator. Cell viability was measured by MTT-based colorimetric assay. The formula to calculate viable cell (%) is as follows: Cell viability (%)=(sample OD550/control OD550)×100% Synergism of DET and Cisplatin

[7] = Primary metabolome of kidney tissues by UPLC/ESI-Q-TOF MS; format: in vivo, C57BL/6J mice
Method: Primary metabolome in the kidney tissues of test mice with various treatments were analyzed using UPLC-QTOF MS. Kidney samples (150 mg) were homogenized with 600 μL methanol and 127.5 μL distilled water. The homogenates were vigorously mixed with 1.2 mL chloroform:H2O solution (1:1, v/v) and then put at −20° C. for 20 min. After centrifugation at 13000×g for 10 min at 4° C., the supernatant (water layer) was collected, dried in a vacuum, and then reconstituted in 100 μL of 50% methanol for analysis.
LC-MS was performed with a LC system (ACQUITY UPLC, Waters, Millford, Mass.) coupled to a hybrid Q-TOF mass spectrometer (Synapt HDMS, Waters, Manchester, U.K.). The sample was separated online with a reverse-phase column (HSS T3 C18, 1.8 μm, 2.1 mm×150 mm, Waters, Milford, Mass.) which was kept in a column oven at 40° C. The mobile phases for positive ion mode consisted of 0.1% formic acid in 2% ACN (buffer A) and 0.1% formic acid in 100% ACN (buffer B). The mobile phases for negative ion mode consisted of pure H2O (buffer A) and pure 100% AcCN (buffer B).
The mass spectrometer equipped with lock electrospray ionization probe was operated in both positive and negative (ESI) modes. The electrospray voltage was set at 3 kV for positive ion mode and −2.5 kV for negative ion mode, and the cone voltage was 40V. The cone and desolvation gas flow were 50 and 700 L/h, respectively. A lock mass calibration of sulfadimethoxin (0.5 mg/L) in water/MeOH (50:50, v/v) was introduce by the HPLC pump (LC-10ATVP, Shimadzu, Japan) and split the 5 μL/min to the lockspray probe. The acquisition method was set to one full MS scan (50-990 m/z) with 0.2 sec scan time in centroid data mode.
The UPLC-MS data were analyzed using MarkerLynx XS version 4.1 SCN639 (Waters, Millford, Mass.). In this application, the peaks in the 0.5-4 min LC-MS data were detected and the noise reduced in both LC and MS domains. The extracted peak information was also processed to remove the peak-to-peak noise, deisotope and filter the MS peak with the intensity lower than 50 counts. A list of the intensities of the processed peaks for each of the LC-MS data was generated using retention time (RT) and m/z data pairs as the identifier of each peak. The processed data for each sample were combined and aligned for each of the RT-m/z pair to generate the final data table. The ion intensities for each peak were then normalized within each sample and the 3-dimensional data, peak identifier (RT-m/z pair), sample name, and ion intensity were analyzed by principle component analysis (PCA). Partial least-squares-discriminant analysis (PLS-DA), a supervised chemometric procedure, was used to define the maximum classification and separation of independent samples.

[8] = for plasma BUN: groups CP2 and DET10+CP1
Method: as §1
The plasma BUN content, an indication of kidney function, was determined in test animals using QuantiChrom™ Urea Kit (BioAssay Systems).

[9] = tested on: metastatic B16 melanoma tumors; assay: Survival of mice carrying metastatic B16 melanoma; format: in vivo, C57BL/6J mice; conditions: tumor control 33 days
Method: All data were expressed as means±SD. For the survival data, the log-rank test was used to determine differences among tumor control, drug and compound treated groups. For other experiments, differences between treatments were determined by ANOVA. A P<0.05 is considered statistically significant.

Human melanocytes = assay: MTT cell viability assay, normal melanocytes; format: cell-based; conditions: 24 h
Method: Cell viability was measured by MTT-based colorimetric assay.

[10] = Body weight of B16 tumor-bearing mice; format: in vivo, C57BL/6J mice; conditions: groups CP2 (cisplatin 2 mg/kg BW) and DET10+CP1, i.p. every two days; P<0.05
Method: Female C57BL/6J mice (National Laboratory Animal Center, Tainan, Taiwan) were given a standard laboratory diet and distilled water ad libitum and kept on a 12-h light/dark cycle at 22±2° C. In total, 63 mice were randomly divided and assigned into 7 groups. Female C57BL/6J mice received an intravenous (i.v) injection with 1×10^5 B16 cells in 200 μL PBS through the tail vein at Day 0. On Day 1, mice were divided into tumor group, CP2 group, DET10 group, DET10+CP1 group, and CP2→DET10 group. The mice were treated intraperitoneally (i.p.) every two days with 2 mg/kg body weight (BW) cisplatin (CP2), 10 mg/kg BW DET (DET10), DET10 mixed with 1 mg/kg BW cisplatin (DET10+CP1), and with CP2 five times and DET10 five times, then CP2 and DET10 taking turns every two days till the end of the experiments (CP2→DET10 group), respectively. The Pre-DET10 group mice were treated i.p with DET (10 mg/kg BW) every two days two weeks before (Day 14) tumor cells inoculation on Day 0, and continuously treated with DET10 till the end of the experiment. The tumor control mice were treated with vehicle DMSO. The mice in the sham control group were injected i.p. with 20 μL DMSO on Day 1 every 2 days throughout the experimental period. Tumor volumes were measured every 3 days and the body weight recorded once a week.

[11] = Pre-DET10 group: DET 10 mg/kg BW i.p. every two days from two weeks before tumor inoculation to end
[12] = i.p. every two days from Day 1, groups CP2 (cisplatin 2 mg/kg BW), DET10 (DET 10 mg/kg BW), DET10+CP1, CP2→DET10
[13] = Day 21, groups CP2, DET10, DET10+CP1, CP2→DET10, i.p. every two days from Day 1
[14] = groups CP2, DET10, DET10+CP1, CP2→DET10, compared with control tumor-bearing group
[15] = pre-DET and DET groups, assignment to group unclear
[16] = i.p. every two days from Day 1, groups CP2, DET10, DET10+CP1, CP2→DET10

Compound: C=C(C)C(=O)O[C@H]1CC2=C[C@@H](C/C(C)=C/[C@H]3OC(=O)C(=C)[C@H]13)OC2=O [DET, deoxyelephantopin]
- sub-G1 (apoptotic) cell fraction (B16 melanoma cells [1]): 8.5%
- effect on the peripheral blood cells profile (haematological toxicity) ([2]; Pre-DET10 group): did not cause deleterious effect
- effect on the peripheral blood cells profile (haematological toxicity) ([2]; groups CP2 and DET10): did not cause deleterious effect
- levels of neutrophil (N) counts ([2]; groups DET10, DET10+CP1, CP2→DET10): Increase levels
- remained bioluminescence intensity relative to tumor control group (100%) [3, 11]: 15%
- remained bioluminescence intensity relative to tumor control group (100%) [3, 12]: 49%
- mean bioluminescence intensity compared to tumor group (100%) [3, 11]: 23%
- mean bioluminescence intensity compared to tumor group (100%) [3, 12]: 45%
- migration velocity of B16 cells (B16 cells): 0.16±0.06 μm/min
- migration distance of B16 cells (B16 cells): 224.1±85.9 μm
- TUNEL-positive (apoptotic) cells in renal tissues ([4]; Day 21, Pre-DET10 group, DET 10 mg/kg BW from two weeks before tumor inoculation): not detectable
- TUNEL-positive (apoptotic) cells in renal tissues [4, 13]: not detectable
- macrophage/monocyte infiltration in renal tissues (F4/80 immunostaining) ([4]; Pre-DET10 group): little or no detectable inflammatory cell infiltration
- macrophage/monocyte infiltration in renal tissues (F4/80 immunostaining) [4, 14]: little or no detectable inflammatory cell infiltration
- B16 melanoma cell migration (B16 melanoma cells [5]): inhibited
- B16 melanoma cell invasion (B16 melanoma cells [5]): inhibited
- IC50 (B16 melanoma cells [6]): 4.5 µM
- increase in carnitine in kidney tissues [7, 15]: 2.3 fold
- increase in pyruvate in kidney tissues [7, 15]: 1.6 fold
- increase in taurine in kidney tissues [7, 15]: 2.1 fold
- change of BUN level compared to the sham control group ([8]; DET10 group, DET 10 mg/kg BW i.p. every two days from Day 1): little or no detectable changes
- change of BUN level compared to the sham control group ([8]; Pre-DET10 group, DET 10 mg/kg BW from two weeks before tumor inoculation): little or no detectable changes
- median survival ([9]; Pre-DET10 group: DET 10 mg/kg BW i.p. from two weeks before tumor inoculation): 43 days
- median survival [9, 16]: 39 days
- toxicity on normal human melanocytes (Human melanocytes): little or no toxicity

Compound: N.N.[Cl][Pt][Cl] [CP, cis-diamminedichloroplatinum(II), reference compound]
- sub-G1 (apoptotic) cell fraction (B16 melanoma cells [1]): 9%
- neutrophil population, times higher than the sham control ([2]; CP2 group): 3.5 times
- neutrophil population, times higher than the tumor group ([2]; CP2 group): 2.55 times
- effect on the peripheral blood cells profile (haematological toxicity) ([2]; groups CP2 and DET10): severe haematological toxicity
- mean bioluminescence intensity compared to tumor group (100%) [3, 12]: 2%
- migration velocity of B16 cells (B16 cells): 0.26±0.14 μm/min
- migration distance of B16 cells (B16 cells): 376.6±100 μm
- H&E staining of kidney tissues ([4]; Day 21, CP2 group, cisplatin 2 mg/kg BW i.p. every two days): severe glomerular congestion and tubular epithelial atrophy
- TUNEL-positive (apoptotic) cells in renal tissues [4, 13]: observed mostly
- macrophage/monocyte infiltration in renal tissues (F4/80 immunostaining) [4, 14]: much significant
- B16 melanoma cell migration (B16 melanoma cells [5]): inhibited
- B16 melanoma cell invasion (B16 melanoma cells [5]): inhibited
- IC50 (B16 melanoma cells [6]): 45 µM
- decrease in alanine, aspartate, phenylalanine, and tryptophan in kidney tissues, in comparison with the sham control ([7]; CP2 group): 1.7- to 2.4 fold
- increase in pyruvate, citrulline, creatine, uric acid, hippuric acid, and 5-HIAA in kidney tissues, in comparison with the sham control ([7]; CP2 group): 1.6- to 12.5 fold
- increase in 5-HIAA in kidney tissues ([7]; groups CP alone, DET+CP, CP→DET): 8.6 fold
- plasma BUN ([8]; Day 14, sham control 25.4±4.1): 61.1 ± 4.3 mg/dL
- plasma BUN ([8]; Day 21, sham control 25.1±4.1): 67.3 ± 0.1 mg/dL
- median survival [9, 16]: 43 days
- body weight of test mice [10]: significantly decreased

Reference: patent publication US8754121B2, “Use of deoxyelephantopin (DET) and analogues thereof for treatment of melanoma” (priority 2010, dated 2014)
